Test results reported in publication PMC7000199, “Indirubin derivatives are potent and selective anti-Trypanosoma cruzi agents” (Virulence, 2018).
Like-named read-outs stand apart in the source and are kept apart here. Marks after values point to notes of the source that are not given here.

Experiments:
[1] = test system: T. cruzi trypomastigotes (Y strain); assay: Cytotoxicity for trypomastigotes (viable parasite count, Neubauer chamber); type: cell-based, Trypanosoma cruzi; settings: for activity at the screening threshold (in words): threshold 10 μΜ
From the text: The trypanocidal activity of the 69 indirubins was initially evaluated against trypomastigotes (Y strain T. cruzi) through the determination of EC50 values. First, the collection of 69 indirubins (Table S1) was screened against the trypomastigote form of T. cruzi parasites at 10 μΜ and 1 μΜ.
The T. cruzi Y strain (DTU II) was used in this study. […] For in vivo analysis, bloodstream trypomastigotes used were obtained from BALB/c mice previously infected intraperitoneally with 10,000 Y trypomastigotes, and then bled after 8–12 days when they reached the peak of parasitaemia.
Trypomastigotes (4x10^5 cells/well) were seeded into 96-well plates and the indirubins were added at eight concentrations ranging from 0.08 to 10 µM, in triplicate. Plates were incubated for 24 h at 37 °C and 5% of CO2. Aliquots of each well were collected and the number of viable parasites, based on parasite integrity and motility, was assessed in a Neubauer chamber and compared to untreated cultures. Three independent experiments were performed.
(§1) The selectivity index (SI) was defined as the ratio of CC50 by EC50 (trypomastigotes). The one-way ANOVA followed by Bonferroni’s multiple comparison test was used to determine the statistical significance of the group comparisons in the in vitro infection and in vivo studies. Results were considered statistically significant when P < 0.05. All analyzes were performed using Graph Pad Prism version 5.01

[2] = test system: T. cruzi intracellular amastigotes; assay: In vitro infection assay (infected peritoneal macrophages); type: cell-based, Trypanosoma cruzi; settings: amastigotes in infected macrophages treated for 6 h, mean ± SD
Protocol: Peritoneal exudate macrophages were obtained by washing, with cold PBS, the peritoneal cavity of BALB/c mice 4–5 days after injection of 3% thioglycolate (Sigma-Aldrich) in saline (1.5 mL per mice). Then, cells were plated at a cell density of 2 × 10^5 cells/well in 24-well plates with sterile coverslips on the bottom in RPMI supplemented with 10% FBS and incubated for 24 h at 37° C and 5% CO2. Cells were then infected with trypomastigotes at a ratio of 10 parasites per macrophage for 2 h. Free trypomastigotes were removed by successive washes using saline solution. Cultures were incubated in complete medium alone or with the compounds under investigation in different concentrations for 6 h. The medium was replaced with fresh medium and the plate was incubated for 3 days. Cells were fixed in absolute alcohol and the percentage of infected macrophages and the mean number of amastigotes/100 macrophages was determined by manual counting after hematoxylin and eosin staining in an optical microscope (Olympus). The percentage of infected macrophages and the relative number of amastigotes per macrophage was determined by counting 100 cells per slide.
as §1

[3] = test system: Y Trypanosoma cruzi strain; assay: Infection in mice (acute Chagas disease model); type: in vivo, BALB/c mice; settings: for Mortality: dead/total, monitored for 30 days after treatment; for % Blood parasitemia reduction in mice at 12 dpi: daily for 5 days from day 5 of infection, versus vehicle group
Protocol: Female BALB/c mice (18–22 g) were infected with bloodstream trypomastigotes by intraperitoneal inoculation of 10^4 parasites in 100 µL of saline solution and then mice were randomly divided in groups (six animals per group). Before starting the treatment on the fifth day post infection, the infection was confirmed in all animals where on average 0.4 × 10^6 parasites per ml of blood were found. Thus, after day 5 of infection, treatment with 20 mg/kg weight of indirubins 10, 11, 17 and 32 were given orally for five consecutive days. For the control group, benznidazole was given orally at dose of 100 mg/kg weight. Saline containing 20% DMSO was used as a vehicle and administrated on untreated and infected group. Infection was monitored daily by counting the number of motile parasites in 5 µL of fresh blood sample drawn from the lateral tail veins, as recommended by standard protocol. Survival of mice was monitored for 30 days after treatment.

[4] = In vivo toxicity: mortality, behaviour, serum and urine renal and hepatic markers; settings: mice, 10 or 20 mg/Kg for 5 consecutive days, up to 3 months post treatment
Protocol: (§3) Thus, the highest dose was selected (20 mg/kg) and administrated, as described in material and methods section.
(§4) The analysis was performed in 6 mice per group.

[5] = test system: T. cruzi trypomastigotes; assay: Ultrastructural studies (TEM and SEM) of treated trypomastigotes; type: cell-based, Trypanosoma cruzi; settings: 24 h; for morphological alterations by scanning electron microscopy: EC50 and 2 x EC50 concentration; for ultrastructural alterations by transmission electron microscopy: EC50 concentration
Protocol: Parasites were then fixed with 2% formaldehyde and 2.5% glutaraldehyde in sodium cacodylate buffer (0.1 M, pH 7.2) for 1 h at room temperature. After fixation, parasites were washed 3 times with sodium cacodylate buffer (0.1 M, pH 7.2), and post-fixed with a 1.0 % solution of osmium tetroxide containing 0.8% potassium ferrocyanide (Sigma-Aldrich; Catalog number: P3289) for 1 h. Cells were subsequently dehydrated in increasing concentrations of acetone (30, 50, 70, 90 and 100%) for 10 min at each step and embedded in polybed resin (PolyScience; Catalog number: 00552–500). Ultrathin sections on copper grids were contrasted with uranyl acetate and lead citrate and observed under a ZEISS 109 transmission electron microscope. For scanning electron microscopy, trypomastigotes treated and fixed in the same conditions were washed in 0.1 M cacodylate buffer, and allowed to adhere in coverslips pre-coated with poly-L-lysine (Sigma-Aldrich; Catalog number: P4707). Cells were then post-fixed with a solution of osmium tetroxide containing 0.8% of potassium ferrocyanide for 30 min and dehydrated in crescent concentrations of ethanol (30, 50, 70, 90 and 100%). The samples were dried until the critical point, metallized with gold and analyzed in a JEOL JSM-6390LV scanning electron microscope. Two independent experiments were performed.

[6] = mouse, in vivo, 20 mg/kg
Protocol: as §3, §4

[7] = Cytotoxicity to mammalian cells (Alamar Blue); type: cell-based, mouse; settings: mouse, J774.1 macrophage cells; J774.1 cell viability, 72 h post-treatment
Protocol: (§2) Mouse macrophages (J774.1 cell line) were seeded into 96-well plates at a cell number 1 × 10^4 cells/well in DMEM medium supplemented with 10 % of FBS and incubated for 24 h at 37°C and 5% CO2. Samples were then added at eight concentrations (ranging from 0.078 to 10 µM) in triplicate, and incubated for 72 h, followed by the addition of 20 µL/well of Alamar Blue (Invitrogen; Catalog number: DAL1025). Colorimetric readings were performed 24 h later at 570 and 600 nm. CC50 values were calculated using data-points gathered from three independent experiments. Benznidazole was tested in concentrations ranging from 0.78 to 100 µM.
as §1

[8] = test system: murine macrophages J774.1; assay: Cytotoxicity to mammalian cells (Alamar Blue); type: cell-based, mouse
Protocol: as §2, §1

[9] = Table S1, 69 indirubin analogues, read-out: EC50 in T.cruzi trypomastigotes
[10] = 20 mg/Kg orally, daily for 5 days
[11] = trypomastigotes, 24 h post-treatment, mean ± SD of three experiments, read-out: EC50 Try.
[12] = 100 mg/Kg orally, daily for 5 days

Compound: Cc1cc2c(cc1Br)NC(=O)C2=C1Nc2ccccc2C1=O [Compound 57]
- EC50 [1, 9]: > 10 µM

Compound: CON=C1C(=C2C(=O)Nc3ccccc32)Nc2ccccc21 [Compound 67]
- EC50 [1, 9]: > 10 µM

Compound: O=C1Nc2ccc(Br)cc2C1=C1Nc2ccccc2C1=NO [Compound 61]
- EC50 [1, 9]: > 10 µM

Compound: Nc1cc2c(cc1Br)NC(=O)C2=C1Nc2ccccc2C1=O [Compound 53]
- EC50 [1, 9]: > 10 µM

Compound: Nc1cc2c(cc1Br)NC(=O)C2=C1Nc2ccccc2C1=NO [Compound 52]
- EC50 [1, 9]: > 10 µM

Compound: O=C1Nc2ccc(Br)cc2C1=C1Nc2ccccc2C1=O [Compound 60]
- EC50 [1, 9]: > 10 µM

Compound: Nc1ccc2c(c1)C(=C1Nc3ccccc3C1=NO)C(=O)N2 [Compound 62]
- EC50 [1, 9]: > 10 µM

Compound: 3ʹpiperazine-6-BIO [Compound 11]
- EC50 [2]: 220 nM
- effect on mortality (in words) [3, 10]: protective effect
- Mortality [3, 10]: 1/6
- signs of toxicity or mortality (in words) [4]: no signs of toxicity
- morphological alterations by scanning electron microscopy [5]: extensive loss of plasma membrane integrity
- morphological alterations by scanning electron microscopy ([5]; listed as compound 11): alterations in cell shape and loss of plasma membrane integrity
- ultrastructural alterations by transmission electron microscopy [5]: appearance of myelin figures
- ultrastructural alterations by transmission electron microscopy ([5]; listed as compound 11): DNA degradation with pyknotic nuclei
- Blood Serum Alanine Aminotransferase (ALT) [6]: 29±2 U/I
- Blood Serum Aspartate Aminotransferase (AST) [6]: 135.5±10.5 U/I
- Blood Serum C-Reactive Protein (CRP) [6]: <0.02 mg/dL
- Blood Serum Creatinine [6]: 0.385 ± 0.015 mg/dL
- Urine (24h) Creatinine [6]: 63±8
- Urine (24h) Microalbumin (Urine Albumin) [6]: 9 ± 1 mg/L
- Urine (24h) Urine albumin to creatinine ratio (ACR) [6]: 0.142
- EC50 [1, 11]: 0.25 µM

Compound: O=C1Nc2cc(I)ccc2C1=C1Nc2ccccc2C1=NO [Compound 65]
- EC50 [1, 9]: > 10 µM

Compound: O=C1Nc2c(Br)cccc2C1=C1Nc2ccccc2C1=NO [Compound 21]
- EC50 [1, 9]: > 10 µM

Compound: O=C(Cn1ccnc1[N+](=O)[O-])NCc1ccccc1 [Benznidazole, reference compound]
- EC50 ([2]; Trypanosoma cruzi, Macrophage): 13400 nM
- survival rate [3, 12]: 100%
- % Blood parasitemia reduction in mice at 12 dpi ([3]; 100 mg/Kg orally): > 99* %
- % Blood parasitemia reduction in mice at 12 dpi ([3]; 100 mg/Kg orally, listed as benznidazole): > 99%
- Mortality [3, 12]: 0/6*
- EC50 ([1]; Trypanosoma cruzi, 24 h, trypomastigotes, 24 h post-treatment, mean ± SD of three experiments, read-out: EC50 Try.): 11.3 µM
- CC50 at 72 h [7]: > 100 µM

Compound: O=C1Nc2cc(Br)c([N+](=O)[O-])cc2C1=C1Nc2ccccc2C1=NO [Compound 51]
- EC50 [1, 9]: > 10 µM

Compound: O=C1Nc2c(cccc2C(F)(F)F)C1=C1Nc2ccccc2C1=NO [Compound 27]
- EC50 [1, 9]: > 10 µM

Compound: O=C1Nc2cc(Br)ccc2C1=C1Nc2ccccc2C1=O [Compound 55]
- EC50 [1, 9]: > 10 µM

Compound: CN1C(=O)C(=C2Nc3ccccc3C2=NO)c2ccc(Br)cc21 [Compound 58]
- EC50 [1, 9]: > 10 µM

Compound: Cc1cc2c(cc1Br)NC(=O)C2=C1Nc2ccccc2C1=NO [Compound 5-Me-6-BIO, 6-br-5methylindirubin-3ʹoxime]
- EC50 [1, 9]: > 10 µM
- activity at the screening threshold (in words) ([1]; trypomastigotes): did not exhibit any activity

Compound: O=C1Nc2c(Br)cccc2C1=C1Nc2ccccc2C1=O [Compound 20]
- EC50 [1, 9]: > 10 µM

Compound: O=C1Nc2ccccc2/C1=C1/Nc2ccccc2C1=O [Compound 66]
- EC50 [1, 9]: > 10 µM

Compound: O=C1Nc2cc(Cl)ccc2C1=C1Nc2ccccc2C1=NO [Compound 64]
- EC50 [1, 9]: > 10 µM

Compound: O=C1Nc2cc(Br)ccc2C1=C1Nc2ccccc2C1=NO [Compound 6BIO, 3'oxime-6-bromoindirubin]
- EC50 [1, 9]: > 10 µM
- activity at the screening threshold (in words) ([1]; trypomastigotes): did not exhibit any activity

Compound: O=C1Nc2cc(N3CCNCC3)c([N+](=O)[O-])cc2C1=C1Nc2ccccc2C1=NO [Compound 45]
- EC50 [1, 9]: > 10 µM

Compound: CC(=O)ON=C1C(=C2C(=O)N(C)c3cc(Br)ccc32)Nc2ccccc21 [Compound 59]
- EC50 [1, 9]: > 10 µM

Compound: O=C1Nc2cc(F)ccc2C1=C1Nc2ccccc2C1=NO [Compound 63]
- EC50 [1, 9]: > 10 µM

Compound: CCOP(=O)(OCC)ON=C1C(=C2C(=O)Nc3cc(Br)ccc32)Nc2ccccc21 [Compound 56]
- EC50 [1, 9]: > 10 µM

Compound: CC(=O)O/N=C1/C(=C2/C(=O)Nc3cc(Br)ccc32)Nc2ccccc21 [Compound 50]
- EC50 [1, 9]: > 10 µM

Compound: O=C1Nc2c(cccc2C(F)(F)F)C1=C1Nc2ccccc2C1=O [Compound 36]
- EC50 [1, 9]: > 10 µM

Compound: O=C1Nc2cc(Br)c([N+](=O)[O-])cc2C1=C1Nc2ccccc2C1=O [Compound 54]
- EC50 [1, 9]: > 10 µM

Compound: 3ʹpyrrolidine-6BIO [Compound 17]
- EC50 [2]: 900 nM
- effect on mortality (in words) [3, 10]: protective effect
- Mortality [3, 10]: 1/6*
- morphological alterations by scanning electron microscopy [5]: extensive loss of plasma membrane integrity
- ultrastructural alterations by transmission electron microscopy [5]: appearance of myelin figures
- ultrastructural alterations by transmission electron microscopy ([5]; listed as compound 17): DNA degradation with pyknotic nuclei
- EC50 [1, 11]: 0.44 µM
- cytotoxicity against murine macrophages J774.1 (in words) [8]: lower cytotoxicity
- CC50 ([8]; J774.1 cell viability, 72 h post-treatment): 10 µM
